# Results from paper PMC6658524, “Lysosomal degradation of newly formed insulin granules contributes to β cell failure in diabetes” (Nature Communications, 2019).
# How the values were obtained:
# p38α = target: T1, p38α (Homo sapiens, UniProt Q16539); assay: biochemical; design: Kinase inhibition by mobility shift assay (Caliper)
# T1 construct: gene MAPK14
# Aurora-B(h) = target: T2, Aurora-B(h) (Homo sapiens, UniProt Q96GD4); assay: biochemical; design: Eurofins KinaseProfiler panel of 60 kinases, per cent inhibition
# T2 construct: gene AURKB
# Excerpt: (§1) A more detailed account of the discovery, chemistry and biochemical properties of this novel class of selective p38δ inhibitors will be given elsewhere.
# EphA1(h) = EphA1(h) (Homo sapiens, UniProt P21709); assay: biochemical; design: Eurofins KinaseProfiler panel of 60 kinases, per cent inhibition
# Excerpt: as §1
# Ron(h) = target: T3, Ron(h) (Homo sapiens, UniProt Q04912); assay: biochemical; design: Eurofins KinaseProfiler panel of 60 kinases, per cent inhibition
# T3 construct: gene MST1R
# Excerpt: as §1
# FGFR1(h) = FGFR1(h) (Homo sapiens, UniProt P11362); assay: biochemical; design: Eurofins KinaseProfiler panel of 60 kinases, per cent inhibition
# Excerpt: as §1
# EphB4(h) = EphB4(h) (Homo sapiens, UniProt P54760); assay: biochemical; design: Eurofins KinaseProfiler panel of 60 kinases, per cent inhibition
# Excerpt: as §1
# CLK2(h) = CLK2(h) (Homo sapiens, UniProt P49760); assay: biochemical; design: Eurofins KinaseProfiler panel of 60 kinases, per cent inhibition
# Excerpt: as §1
# KDR(h) = KDR(h) (Homo sapiens, UniProt P35968); assay: biochemical; design: Eurofins KinaseProfiler panel of 60 kinases, per cent inhibition
# Excerpt: as §1
# Plk1(h) = Plk1(h) (Homo sapiens, UniProt P53350); assay: biochemical; design: Eurofins KinaseProfiler panel of 60 kinases, per cent inhibition
# Excerpt: as §1
# LRRK2(h) = LRRK2(h) (Homo sapiens, UniProt Q5S007); assay: biochemical; design: Eurofins KinaseProfiler panel of 60 kinases, per cent inhibition
# Excerpt: as §1
# p70S6K(h) = target: T4, p70S6K(h) (Homo sapiens, UniProt P23443); assay: biochemical; design: Eurofins KinaseProfiler panel of 60 kinases, per cent inhibition
# T4 construct: gene RPS6KB1
# Excerpt: as §1
# PKCζ(h) = target: T5, PKCζ(h) (Homo sapiens, UniProt Q05513); assay: biochemical; design: Eurofins KinaseProfiler panel of 60 kinases, per cent inhibition
# T5 construct: gene PRKCZ
# Excerpt: as §1
# Pim-2(h) = target: T6, Pim-2(h) (Homo sapiens, UniProt Q9P1W9); assay: biochemical; design: Eurofins KinaseProfiler panel of 60 kinases, per cent inhibition
# T6 construct: gene PIM2
# Excerpt: as §1
# MELK(h) = MELK(h) (Homo sapiens, UniProt Q14680); assay: biochemical; design: Eurofins KinaseProfiler panel of 60 kinases, per cent inhibition
# Excerpt: as §1
# CaMKI(h) = target: T7, CaMKI(h) (Homo sapiens, UniProt Q14012); assay: biochemical; design: Eurofins KinaseProfiler panel of 60 kinases, per cent inhibition
# T7 construct: gene CAMK1
# Excerpt: as §1
# EGFR(h) = EGFR(h) (Homo sapiens, UniProt P00533); assay: biochemical; design: Eurofins KinaseProfiler panel of 60 kinases, per cent inhibition
# Excerpt: as §1
# MAPK1(h) = target: T8, MAPK1(h) (Homo sapiens, UniProt P27361); assay: biochemical; design: Eurofins KinaseProfiler panel of 60 kinases, per cent inhibition
# T8 construct: gene MAPK3
# Excerpt: as §1
# PKBα(h) = target: T9, PKBα(h) (Homo sapiens, UniProt P31749); assay: biochemical; design: Eurofins KinaseProfiler panel of 60 kinases, per cent inhibition
# T9 construct: gene AKT1
# Excerpt: as §1
# Syk(h) = Syk(h) (Homo sapiens, UniProt P43405); assay: biochemical; design: Eurofins KinaseProfiler panel of 60 kinases, per cent inhibition
# Excerpt: as §1
# Hck(h) activated = Hck(h) activated (Homo sapiens, UniProt P08631); assay: biochemical; design: Eurofins KinaseProfiler panel of 60 kinases, per cent inhibition
# Excerpt: as §1
# PKD1 = target: T10, PKD1 (Homo sapiens, UniProt Q15139); assay: biochemical; design: Kinase inhibition by mobility shift assay (Caliper)
# T10 construct: gene PRKD1
# p38γ (SAPK3) [1] = target: T11, p38γ (SAPK3) (Homo sapiens, UniProt P53778); assay: biochemical; design: Kinase inhibition by mobility shift assay (Caliper)
# T11 construct: gene MAPK12
# p38δ = target: T12, p38δ (Homo sapiens, UniProt O15264); assay: biochemical; design: Kinase inhibition by mobility shift assay (Caliper)
# T12 construct: gene MAPK13
# p70S6K = target: T13, p70S6K (Homo sapiens, UniProt P23443); assay: 60-kinase selectivity panel, % inhibition at […]; assay type: biochemical
# T13 construct: gene RPS6KB1
# p38γ (SAPK3) [2] = target: T11, p38γ (SAPK3); assay: mobility shift assay (Caliper); confirmed in 60-kinase panel, % inhibition at […]; assay type: biochemical
# mTOR = mTOR (Homo sapiens, UniProt P42345); assay: 60-kinase selectivity panel, % inhibition at […]; assay type: biochemical
# KDR(h), sequence (P35968 whole entry): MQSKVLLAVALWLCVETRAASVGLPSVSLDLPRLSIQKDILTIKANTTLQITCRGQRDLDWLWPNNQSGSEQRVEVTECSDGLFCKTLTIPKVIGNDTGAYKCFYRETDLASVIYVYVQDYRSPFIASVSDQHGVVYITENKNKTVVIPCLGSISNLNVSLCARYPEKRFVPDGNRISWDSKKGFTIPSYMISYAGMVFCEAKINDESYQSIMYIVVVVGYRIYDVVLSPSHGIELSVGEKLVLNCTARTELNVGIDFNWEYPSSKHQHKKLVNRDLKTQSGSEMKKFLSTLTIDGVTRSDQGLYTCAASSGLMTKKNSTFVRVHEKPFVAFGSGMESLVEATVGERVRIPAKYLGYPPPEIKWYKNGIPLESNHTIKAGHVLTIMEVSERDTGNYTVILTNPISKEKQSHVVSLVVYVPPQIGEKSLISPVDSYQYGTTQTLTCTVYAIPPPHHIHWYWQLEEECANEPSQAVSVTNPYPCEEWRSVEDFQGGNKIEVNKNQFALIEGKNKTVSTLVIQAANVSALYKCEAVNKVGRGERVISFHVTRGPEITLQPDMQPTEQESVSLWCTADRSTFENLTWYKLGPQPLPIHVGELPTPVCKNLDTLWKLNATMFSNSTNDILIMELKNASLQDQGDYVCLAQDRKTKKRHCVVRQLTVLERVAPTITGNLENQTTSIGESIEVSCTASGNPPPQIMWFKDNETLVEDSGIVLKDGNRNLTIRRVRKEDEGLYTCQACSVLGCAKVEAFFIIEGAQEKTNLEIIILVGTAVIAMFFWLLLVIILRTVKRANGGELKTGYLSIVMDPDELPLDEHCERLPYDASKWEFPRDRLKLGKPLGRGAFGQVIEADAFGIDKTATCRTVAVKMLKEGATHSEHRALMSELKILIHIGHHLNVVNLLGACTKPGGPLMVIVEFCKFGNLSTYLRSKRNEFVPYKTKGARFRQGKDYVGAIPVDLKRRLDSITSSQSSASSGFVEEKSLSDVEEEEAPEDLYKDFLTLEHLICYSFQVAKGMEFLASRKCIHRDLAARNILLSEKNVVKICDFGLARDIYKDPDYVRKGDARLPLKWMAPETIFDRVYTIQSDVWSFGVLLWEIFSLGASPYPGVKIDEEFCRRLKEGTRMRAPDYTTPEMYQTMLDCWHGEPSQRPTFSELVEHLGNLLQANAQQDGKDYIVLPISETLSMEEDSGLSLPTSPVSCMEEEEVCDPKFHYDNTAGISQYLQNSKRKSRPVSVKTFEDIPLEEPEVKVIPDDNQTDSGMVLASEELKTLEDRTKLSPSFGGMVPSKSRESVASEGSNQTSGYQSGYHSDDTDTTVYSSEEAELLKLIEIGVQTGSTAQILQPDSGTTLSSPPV
# T2 sequence (Q96GD4 whole entry): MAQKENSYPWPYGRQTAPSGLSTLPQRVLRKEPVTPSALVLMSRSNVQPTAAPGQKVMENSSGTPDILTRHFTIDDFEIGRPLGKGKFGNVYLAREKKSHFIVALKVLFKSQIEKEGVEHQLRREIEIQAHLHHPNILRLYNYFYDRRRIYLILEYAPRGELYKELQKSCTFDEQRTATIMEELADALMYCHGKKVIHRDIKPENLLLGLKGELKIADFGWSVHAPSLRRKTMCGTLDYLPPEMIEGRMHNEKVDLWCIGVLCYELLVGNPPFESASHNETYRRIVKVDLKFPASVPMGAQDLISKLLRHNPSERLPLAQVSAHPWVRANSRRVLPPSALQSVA
# EphB4(h), sequence (P54760 whole entry): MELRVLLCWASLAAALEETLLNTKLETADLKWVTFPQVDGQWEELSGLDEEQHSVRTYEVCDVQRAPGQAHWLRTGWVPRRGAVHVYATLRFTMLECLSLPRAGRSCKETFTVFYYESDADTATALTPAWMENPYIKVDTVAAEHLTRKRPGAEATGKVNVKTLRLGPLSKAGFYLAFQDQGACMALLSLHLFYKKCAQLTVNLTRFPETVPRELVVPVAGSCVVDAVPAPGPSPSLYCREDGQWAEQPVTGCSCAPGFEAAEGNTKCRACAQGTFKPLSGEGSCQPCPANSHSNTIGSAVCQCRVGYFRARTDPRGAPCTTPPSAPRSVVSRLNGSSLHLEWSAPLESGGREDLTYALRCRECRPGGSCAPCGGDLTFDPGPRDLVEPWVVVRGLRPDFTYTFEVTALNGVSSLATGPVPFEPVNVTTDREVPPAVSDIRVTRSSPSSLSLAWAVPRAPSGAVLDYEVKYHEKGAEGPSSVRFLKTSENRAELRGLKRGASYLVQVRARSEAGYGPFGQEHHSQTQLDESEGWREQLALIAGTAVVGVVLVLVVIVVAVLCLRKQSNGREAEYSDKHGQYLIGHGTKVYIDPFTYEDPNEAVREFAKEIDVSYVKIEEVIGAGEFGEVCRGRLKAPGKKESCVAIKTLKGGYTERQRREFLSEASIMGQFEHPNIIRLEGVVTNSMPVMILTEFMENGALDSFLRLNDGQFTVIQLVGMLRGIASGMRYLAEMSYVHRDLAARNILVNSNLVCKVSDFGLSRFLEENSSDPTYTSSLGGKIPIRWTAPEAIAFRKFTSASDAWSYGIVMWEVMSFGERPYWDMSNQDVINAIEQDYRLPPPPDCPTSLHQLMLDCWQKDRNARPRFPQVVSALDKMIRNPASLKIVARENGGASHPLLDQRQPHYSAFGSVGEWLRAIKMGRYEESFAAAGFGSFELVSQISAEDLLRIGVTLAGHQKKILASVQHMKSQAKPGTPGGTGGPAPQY
# EGFR(h), sequence (P00533 whole entry): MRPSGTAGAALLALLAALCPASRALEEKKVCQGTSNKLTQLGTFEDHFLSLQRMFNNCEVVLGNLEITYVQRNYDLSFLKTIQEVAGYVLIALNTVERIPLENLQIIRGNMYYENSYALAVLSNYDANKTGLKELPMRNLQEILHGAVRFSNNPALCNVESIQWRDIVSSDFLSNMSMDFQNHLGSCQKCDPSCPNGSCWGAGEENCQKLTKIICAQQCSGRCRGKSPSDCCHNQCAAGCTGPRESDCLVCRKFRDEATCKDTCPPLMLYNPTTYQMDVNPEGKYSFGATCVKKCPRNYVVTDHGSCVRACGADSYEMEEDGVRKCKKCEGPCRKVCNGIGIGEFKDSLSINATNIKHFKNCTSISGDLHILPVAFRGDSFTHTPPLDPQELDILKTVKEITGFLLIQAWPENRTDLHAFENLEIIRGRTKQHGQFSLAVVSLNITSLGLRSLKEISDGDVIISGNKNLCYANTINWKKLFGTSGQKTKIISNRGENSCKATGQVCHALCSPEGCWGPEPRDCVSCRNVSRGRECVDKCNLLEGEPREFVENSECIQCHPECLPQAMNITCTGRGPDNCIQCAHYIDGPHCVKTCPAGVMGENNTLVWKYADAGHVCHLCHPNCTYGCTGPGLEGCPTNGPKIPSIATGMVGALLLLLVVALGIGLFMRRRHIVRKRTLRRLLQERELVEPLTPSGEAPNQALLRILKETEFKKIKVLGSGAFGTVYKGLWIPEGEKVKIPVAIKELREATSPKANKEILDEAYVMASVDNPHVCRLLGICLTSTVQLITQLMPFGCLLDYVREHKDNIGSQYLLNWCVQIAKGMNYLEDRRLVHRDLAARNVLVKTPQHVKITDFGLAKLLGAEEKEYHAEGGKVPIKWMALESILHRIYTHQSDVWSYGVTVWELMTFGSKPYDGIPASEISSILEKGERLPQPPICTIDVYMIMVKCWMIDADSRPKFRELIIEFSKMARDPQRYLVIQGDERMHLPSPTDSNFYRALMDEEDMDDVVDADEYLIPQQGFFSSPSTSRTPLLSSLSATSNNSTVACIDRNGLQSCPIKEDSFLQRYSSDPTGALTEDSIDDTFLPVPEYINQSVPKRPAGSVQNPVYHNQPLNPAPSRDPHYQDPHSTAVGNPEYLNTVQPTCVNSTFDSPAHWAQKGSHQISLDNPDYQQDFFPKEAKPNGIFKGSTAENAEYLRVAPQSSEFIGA
# T11 sequence (P53778 whole entry): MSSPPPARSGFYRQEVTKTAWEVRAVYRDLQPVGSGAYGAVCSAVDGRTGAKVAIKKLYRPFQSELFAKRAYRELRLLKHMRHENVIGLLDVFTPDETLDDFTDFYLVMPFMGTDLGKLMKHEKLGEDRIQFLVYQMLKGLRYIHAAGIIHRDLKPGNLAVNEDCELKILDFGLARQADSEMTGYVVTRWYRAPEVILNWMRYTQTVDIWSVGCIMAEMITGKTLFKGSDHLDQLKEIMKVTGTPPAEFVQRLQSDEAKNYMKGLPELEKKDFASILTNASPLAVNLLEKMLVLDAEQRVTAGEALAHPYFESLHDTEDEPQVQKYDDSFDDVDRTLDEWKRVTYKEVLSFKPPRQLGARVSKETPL
# FGFR1(h), sequence (P11362 whole entry): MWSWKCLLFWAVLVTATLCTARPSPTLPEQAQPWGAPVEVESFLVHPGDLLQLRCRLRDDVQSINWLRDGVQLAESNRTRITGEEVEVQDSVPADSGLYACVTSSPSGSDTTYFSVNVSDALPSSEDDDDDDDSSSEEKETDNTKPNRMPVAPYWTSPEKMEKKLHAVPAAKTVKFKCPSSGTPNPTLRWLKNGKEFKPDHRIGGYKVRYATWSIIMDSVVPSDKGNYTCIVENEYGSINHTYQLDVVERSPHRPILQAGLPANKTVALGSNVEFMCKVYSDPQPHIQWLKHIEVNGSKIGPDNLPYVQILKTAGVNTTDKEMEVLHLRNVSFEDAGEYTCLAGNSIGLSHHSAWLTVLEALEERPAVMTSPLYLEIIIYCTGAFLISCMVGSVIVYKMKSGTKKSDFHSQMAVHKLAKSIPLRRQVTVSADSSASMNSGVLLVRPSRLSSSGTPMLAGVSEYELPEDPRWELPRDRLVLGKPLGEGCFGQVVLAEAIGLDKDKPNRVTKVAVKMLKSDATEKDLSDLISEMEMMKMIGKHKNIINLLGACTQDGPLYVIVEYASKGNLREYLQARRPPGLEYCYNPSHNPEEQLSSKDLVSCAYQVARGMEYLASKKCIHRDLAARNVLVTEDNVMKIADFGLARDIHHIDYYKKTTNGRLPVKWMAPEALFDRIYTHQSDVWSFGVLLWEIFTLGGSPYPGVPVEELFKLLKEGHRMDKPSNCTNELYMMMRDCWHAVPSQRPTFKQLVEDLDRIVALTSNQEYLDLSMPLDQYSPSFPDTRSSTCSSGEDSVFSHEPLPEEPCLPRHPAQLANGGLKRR
structure (smiles),measurement,setting,value
CCN1CCOc2nc(N3CCOCC3)nc(-c3ccc(NC(=O)OC)cc3)c2C1=O [Compound A],IC50,p38α,> 30000 nM
same,inhibition at 1 µM,Aurora-B(h),-24%
same,inhibition at 10 µM,Aurora-B(h),-28%
same,inhibition at 1 µM,EphA1(h),0%
same,inhibition at 10 µM,EphA1(h),7%
same,inhibition at 1 µM,Ron(h),10%
same,inhibition at 10 µM,Ron(h),9%
same,inhibition at 1 µM,FGFR1(h),9%
same,inhibition at 10 µM,FGFR1(h),6%
same,inhibition at 1 µM,EphB4(h),-3%
same,inhibition at 10 µM,EphB4(h),8%
same,inhibition at 1 µM,CLK2(h),-2%
same,inhibition at 10 µM,CLK2(h),-2%
same,inhibition at 1 µM,KDR(h),-16%
same,inhibition at 10 µM,KDR(h),-12%
same,inhibition at 1 µM,Plk1(h),2%
same,inhibition at 10 µM,Plk1(h),11%
same,inhibition at 1 µM,LRRK2(h),-18%
same,inhibition at 10 µM,LRRK2(h),-11%
same,inhibition at 1 µM,p70S6K(h),15%
same,inhibition at 1 µM,PKCζ(h),0%
same,inhibition at 10 µM,PKCζ(h),10%
same,inhibition at 1 µM,Pim-2(h),8%
same,inhibition at 10 µM,Pim-2(h),7%
same,inhibition at 1 µM,MELK(h),2%
same,inhibition at 10 µM,MELK(h),9%
same,inhibition at 1 µM,CaMKI(h),5%
same,inhibition at 10 µM,CaMKI(h),11%
same,inhibition at 1 µM,EGFR(h),-17%
same,inhibition at 10 µM,EGFR(h),4%
same,inhibition at 1 µM,MAPK1(h),0%
same,inhibition at 10 µM,MAPK1(h),5%
same,inhibition at 1 µM,PKBα(h),14%
same,inhibition at 10 µM,PKBα(h),17%
same,inhibition at 1 µM,Syk(h),4%
same,inhibition at 10 µM,Syk(h),20%
same,inhibition at 1 µM,Hck(h) activated,-5%
same,inhibition at 10 µM,Hck(h) activated,5%
same,IC50,PKD1,> 30000 nM
same,IC50,p38γ (SAPK3) [1],710 nM
same,IC50,p38δ,380 nM
same,% inhibition at 10 μM,p70S6K,59
same,% inhibition at 10 μM,p38γ (SAPK3) [2],64
same,% inhibition at 10 μM,mTOR,48
